Data reported in paper PMC10432564, “Pharmacological perturbation of the phase-separating protein SMNDC1” (Nature Communications, 2023).

Experiments:
SMN Tudor domain = SMN Tudor domain (Homo sapiens, UniProt Q16637); experiment: AlphaScreen, SMN Tudor domain / sDMA-peptide interaction
Method: To establish an AlphaScreen[50], we coupled donor beads to purified SMNDC1’s (or SMN’s) Tudor domain via a His-Tag and acceptor beads to a biotinylated peptide corresponding to the C-terminal region of the Small nuclear ribonucleoprotein Sm D3 containing four sDMAs (Fig. 4a). […] To identify ideal concentrations for screening, we performed a cross-titration of Tudor domains and binding peptides (Supplementary Fig. 3b).
The AlphaScreen was conducted in 20 mM sodium phosphate pH 6.5, 50 mM NaCl, Tween 0.01%, BSA 0.1%. Protein concentration was optimized for each batch of purified protein. Optimal concentration was chosen at the lowest concentration with ~80% of maximum signal. […] In the first step, 10 µl of the protein solution containing either SMNDC1’s or SMN’s Tudor domain coupled to a 6xHis-Tag were distributed to 384-well plates pre-spotted with compounds and controls, shaken and incubated for 30 min at RT. Afterwards, 10 µl of peptide solution was added to each well and incubated for 1 h at RT. Finally, 5 µl of a solution containing both Streptavidin Donor and nickel chelate (Ni-NTA) Acceptor beads was added and again incubated for 1 h at RT.

[1] = Solubility in aqueous, buffered solution for NMR; format: physicochemical
Method: All NMR acquisition was performed in 3 mm tubes at 25 °C. […] All titration measurements were performed in 20 mM sodium phosphate buffer pH 6.5, 50 mM NaCl, 4 mM dithiothreitol and 10% (v/v) D2O as deuterium lock. Aqueous, buffered inhibitor stock solutions of maximal 20 mM concentration were prepared and carefully adjusted to pH 6.5. Inhibitor concentration was measured by addition of 100 µM DSS, peak integration and calculating with C=I⋅NDSS⋅CDSS/IDSS⋅N where C, I, N and CDSS, IDSS, NDSS is the concentration, peak intensity, and number of protons of inhibitor and DSS, respectively.

APEX2-SMNDC1^TD = biological target: T1, APEX2-SMNDC1^TD (Homo sapiens, UniProt O75940); experiment: APEX2-SMNDC1^TD proximity labeling, biotin enrichment and mass spectrometry; format: cell-based, mouse; conditions: compound-treated over DMSO; adjusted p-value<0.05, |log2FC|≥2
T1 construct: a truncated SMNDC1 consisting of only the Tudor domain and therefore lacking N-terminal and C-terminal regions; expressed in transfected cells
T1 sequence (O75940 72-132 limits assumed): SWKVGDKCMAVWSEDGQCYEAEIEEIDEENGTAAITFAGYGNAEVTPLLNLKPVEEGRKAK
Source text: Proximity labeling with APEX2 was done following the described protocol for imaging and proteomic analysis. Cell lines with a stable expression of APEX2-fusion proteins were generated using lentiviral transduction of plasmids generated with Gateway cloning of the respective fusion protein into pLEX305. pLEX_305 was a gift from David Root (Addgene plasmid # 41390; http://n2t.net/addgene:41390; RRID:Addgene_41390). The APEX2 sequence was amplified from APEX2-csGBP which was a gift from Rob Parton (Addgene plasmid # 108874; http://n2t.net/addgene:108874; RRID:Addgene_108874). Briefly, cells were incubated with 0.5 mM biotin-phenol for 30 min, after which 1 mM H2O2 was added for exactly 1 min. Afterwards the labeling reaction was quenched by 3 quick washes with Quenching solution (10 mM sodium ascorbate, 10 mM sodium azide, 5 mM Trolox in PBS). […]
After proximity labeling, cells (~10 Mio. cells, 15 cm dish) were harvested, washed 2x in PBS, snap frozen and stored at −80 °C. […] After quantification of protein amounts by Pierce™ 660 nm Protein Assay, samples were normalized to 500 µg total protein input in a final volume of 300 µl lysis buffer. […]
Following data acquisition, acquired raw data files were processed using the Proteome Discoverer v.2.4.1.15 platform, choosing a TMT16plex quantification method. […]

Chain of SMN Tudor domain (Q16637 84-147): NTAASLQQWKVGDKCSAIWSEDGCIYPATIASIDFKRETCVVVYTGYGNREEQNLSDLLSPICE

Compound: CN(C)S(=O)(=O)c1ccc(C(=O)Nc2nc(-c3ccccn3)cs2)cc1 [compound 1]
- IC50 (SMN Tudor domain): 880 nM
- solubility [1]: insufficient solubility
- proteins significantly depleted (APEX2-SMNDC1^TD): 0 proteins
- proteins significantly enriched (APEX2-SMNDC1^TD): 5 proteins
